Data from the supplement of paper PMC6045584.
± gives the standard deviation of the averaged measurements.

Experiments:
[1] = compound: T1, CN(C)CC[C@H](CSc1ccccc1)Nc1ccc(S(=O)(=O)NC(=O)c2ccc(N3CCN(Cc4ccccc4-c4ccc(Cl)cc4)CC3)cc2)cc1[N+](=O)[O-] [ABT-737]; assay: surviving fraction relative to DMSO-only wells; higher = less growth inhibition; settings: exposure time: 5 days
In short: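 At 250–500 cells per well in 384-well plates, log-phase tumour cell lines were seeded and, 24 hours on, exposed continuously for five days to inhibitors at 0.5, 1, 5, 10, 50, 100, 500 and 1000 nM. Viability readout was CellTiter-Glo luminescence, reported as surviving fraction normalised to the median of DMSO-only wells.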

[2] = compound: COc1cc2c(cc1O)CC[C@@H]1[C@@H]2CC[C@]2(C)[C@@H](O)CC[C@@H]12 [2-METHOXYESTRADIOL]; assay: area under dose-response curve of surviving fraction (unscaled, Aref=0) (surviving fraction x log10(nM)); higher = more resistant; settings: exposure time: 5 days; dose range 0.5-1000 nM
In short: (§1)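 Three screens per tumour cell line were run in 384-well plates at eight inhibitor concentrations from 0.5 to 1000 nM over five days. Surviving fractions, from CellTiter-Glo luminescence normalised to DMSO-only wells, were fitted with 3-parameter logistic curves in the drc R package. The reported area under the curve is the unscaled activity area. It spans log10 dose, and Aref is 0.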

[3] = compound: Oc1ccc(/C=C/c2cc(O)cc(O)c2)cc1 [RESVERATROL]; assay: as above; settings: exposure time: 5 days; dose range 0.5-1000 nM
In short: as §1

[4] = compound: T1, ABT-737; assay: as above; settings: exposure time: 5 days; dose range 0.5-1000 nM
In short: as §1

[5] = compound: Nc1ncn([C@H]2C[C@H](O)[C@@H](CO)O2)c(=O)n1 [DECITABINE]; assay: as above; settings: exposure time: 5 days; dose range 0.5-1000 nM
In short: as §1

[6] = compound: CS(=O)(=O)CCNCc1ccc(-c2ccc3ncnc(Nc4ccc(OCc5cccc(F)c5)c(Cl)c4)c3c2)o1 [LAPATINIB]; assay: as above; settings: exposure time: 5 days; dose range 0.5-1000 nM
In short: as §1

[7] = compound: CN1CC[C@H](c2c(O)cc(O)c3c(=O)cc(-c4ccccc4Cl)oc23)[C@H](O)C1 [FLAVOPIRIDOL]; assay: as above; settings: exposure time: 5 days; dose range 0.5-1000 nM
In short: as §1

| Test System | surviving fraction ([1]; 0.5 nM) | surviving fraction ([1]; 1 nM) | surviving fraction ([1]; 5 nM) | surviving fraction ([1]; 10 nM) | surviving fraction ([1]; 50 nM) | surviving fraction ([1]; 100 nM) | surviving fraction ([1]; 500 nM) | surviving fraction ([1]; 1000 nM) | area under dose-response curve [2] | area under dose-response curve [3] | area under dose-response curve [4] | area under dose-response curve [5] | area under dose-response curve [6] | area under dose-response curve [7] |
| --- | --- | --- | --- | --- | --- | --- | --- | --- | --- | --- | --- | --- | --- | --- |
| CCK81 LARGE INTESTINE | 0.869 ± 0.15 | 0.887 ± 0.025 | 0.83 ± 0.11 | 0.847 ± 0.077 | 0.859 ± 0.11 | 0.724 ± 0.13 | 0.678 ± 0.071 | 0.695 ± 0.053 | 2.32 | 2.47 | 2.64 | 1.69 | 1.95 | 1.69 |
| G292 BONE | 1.06 ± 0.043 | 1.03 ± 0.021 | 1.08 ± 0.014 | 1.02 ± 0.012 | 1.07 ± 0.022 | 1.06 ± 0.024 | 1.02 ± 0.019 | 0.904 ± 0.027 | 2.87 | 3.42 | 3.45 | 2.61 | 3.3 | 2.14 |
| HCC38 BREAST | 1.22 ± 0.037 | 1.23 ± 0.086 | 1.3 ± 0.23 | 1.31 ± 0.049 | 1.21 ± 0.11 | 1.26 ± 0.17 | 0.873 ± 0.12 | 0.714 ± 0.068 |  |  |  | 2.64 | 3 | 2.36 |
| HCC70 BREAST | 1.07 ± 0.044 | 1.11 ± 0.08 | 1.1 ± 0.065 | 1.11 ± 0.051 | 1.06 ± 0.092 | 1.03 ± 0.078 | 1 ± 0.048 | 0.978 ± 0.032 | 3.06 | 3.59 | 3.49 |  | 3.58 | 2.16 |
| HMLE3 BREAST | 1.06 ± 0.073 | 1.06 ± 0.049 | 1.15 ± 0.013 | 1.17 ± 0.11 | 1.1 ± 0.13 | 1.17 ± 0.12 | 1.17 ± 0.13 | 1.22 ± 0.1 | 3.23 | 3.42 | 3.75 | 2.98 |  | 2.14 |
| HMT3552 BREAST | 1.01 ± 0.084 | 1.02 ± 0.033 | 1.04 ± 0.035 | 0.979 ± 0.082 | 1.1 ± 0.036 | 1.23 ± 0.038 | 1.03 ± 0.06 | 1.17 ± 0.03 | 2.95 | 3.64 | 3.5 | 3.71 | 3.24 | 1.86 |
| HS57T BREAST | 1.03 ± 0.056 | 1.09 ± 0.011 | 1.08 ± 0.072 | 1.11 ± 0.093 | 1.04 ± 0.01 | 1.06 ± 0.066 | 0.981 ± 0.039 | 0.965 ± 0.018 |  |  |  |  |  |  |
| HS578T BREAST | 1.08 ± 0.11 | 1.37 ± 0.23 | 1.26 ± 0.15 | 1.24 ± 0.11 | 1.18 ± 0.073 | 1.15 ± 0.15 | 0.975 ± 0.021 | 0.955 ± 0.059 | 2.71 | 3.82 | 3.8 | 2.99 | 3.34 | 2.13 |
